# Test results: publication PMC4863944, “Inhibition of Oncogenic Transcription Factor REL by the Natural Product Derivative Calafianin Monomer 101 Induces Proliferation Arrest and Apoptosis in Human B-Lymphoma Cell Lines” (Molecules, 2015)
# What was measured:
# p65 (RelA) = target: T1, p65 (RelA) (Homo sapiens, UniProt Q04206); assay: EMSA of extracts from CM101-treated transfected […] cells; C38S mutant less inhibited; western blot of covalently modified high molecular weight forms; type: cell-based
# T1 construct: FLAG-tagged human p65 expressed in 293 cells
# T1 sequence (Q04206 whole entry): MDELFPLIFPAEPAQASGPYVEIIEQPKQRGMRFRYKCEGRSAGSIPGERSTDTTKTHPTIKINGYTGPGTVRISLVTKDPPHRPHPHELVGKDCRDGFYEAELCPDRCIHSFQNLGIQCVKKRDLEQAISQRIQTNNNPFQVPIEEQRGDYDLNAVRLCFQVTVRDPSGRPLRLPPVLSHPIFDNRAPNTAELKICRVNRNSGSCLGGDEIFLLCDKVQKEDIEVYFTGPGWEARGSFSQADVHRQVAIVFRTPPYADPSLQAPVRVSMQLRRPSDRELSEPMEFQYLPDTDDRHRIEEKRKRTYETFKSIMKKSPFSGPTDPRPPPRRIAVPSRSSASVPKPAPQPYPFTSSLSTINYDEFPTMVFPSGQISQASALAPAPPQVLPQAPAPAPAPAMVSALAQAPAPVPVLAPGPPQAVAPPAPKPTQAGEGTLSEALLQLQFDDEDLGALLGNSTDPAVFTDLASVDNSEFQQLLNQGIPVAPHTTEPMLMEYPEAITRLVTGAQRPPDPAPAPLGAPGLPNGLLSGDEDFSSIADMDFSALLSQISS
# REL (human c-Rel) = target: T2, REL (human c-Rel) (Homo sapiens, UniProt Q04864); assay: EMSA of extracts from CM101-treated transfected […] cells; C27S mutant less inhibited; western blot of covalently modified high molecular weight forms; type: cell-based
# T2 construct: FLAG-tagged human REL expressed in 293 cells
# T2 sequence (Q04864 2-619): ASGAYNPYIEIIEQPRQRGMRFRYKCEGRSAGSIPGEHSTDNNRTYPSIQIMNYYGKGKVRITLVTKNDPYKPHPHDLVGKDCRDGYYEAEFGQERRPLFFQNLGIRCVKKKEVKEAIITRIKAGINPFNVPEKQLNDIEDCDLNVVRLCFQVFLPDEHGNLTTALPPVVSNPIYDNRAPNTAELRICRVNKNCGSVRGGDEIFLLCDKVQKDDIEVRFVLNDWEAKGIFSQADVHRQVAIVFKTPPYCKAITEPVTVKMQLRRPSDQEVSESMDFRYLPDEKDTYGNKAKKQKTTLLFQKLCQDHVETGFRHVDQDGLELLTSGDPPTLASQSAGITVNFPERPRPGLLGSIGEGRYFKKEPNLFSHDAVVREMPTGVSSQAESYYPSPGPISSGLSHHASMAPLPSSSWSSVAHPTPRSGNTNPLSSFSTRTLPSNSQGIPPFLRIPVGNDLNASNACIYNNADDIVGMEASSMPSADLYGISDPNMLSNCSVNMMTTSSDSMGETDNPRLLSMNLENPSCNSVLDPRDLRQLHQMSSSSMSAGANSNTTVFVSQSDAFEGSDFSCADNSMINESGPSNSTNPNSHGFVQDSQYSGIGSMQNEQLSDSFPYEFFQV
structure (smiles),measurement,setting,value
CCOC(=O)C1=NO[C@@]2(C=C(Br)C(=O)[C@H]3O[C@H]32)C1 (mixture of isomers) [CM101],IC50,p65 (RelA),~10 µM
same,IC50,REL (human c-Rel),~10 µM
